Measured values: paper PMC9136971 (ACS Central Science, 2022)
Where a SMILES comes first, the peptide text is derived from it. The star is where a group is joined. X1 = O=C(O)[C@H]1CSC(c2nc3ccc(OCc4ccc(N*)cc4)cc3s2)=N1

Assays:
[1] = Baseline uptake and biodistribution study in healthy mice; type: in vivo, mouse; conditions: for baseline bioluminescence distribution: healthy Fluc+ BALB/c mice, D-luciferin 3 mg i.p., GBLI2 200 μg i.v. retro-orbital
[2] = tested on: activated untransduced CD8+ T cells; test: Cell viability assay; type: cell-based, mouse; conditions: 5 μM – 100 μM, 37 °C, 3.5 h, absorbance at 490 nm
A20Luc+ cells = test: Cell viability assay; type: cell-based, mouse; conditions: 5 μM – 100 μM, 37 °C, 3.5 h, absorbance at 490 nm
[3] = DLS size distribution and zeta potential of nanoaggregates; type: physicochemical; conditions: without gzmB cleavage
CAR T cells = test: Cell viability assay; type: cell-based, mouse; conditions: 5 μM – 100 μM, 37 °C, 3.5 h, absorbance at 490 nm
[4] = tested on: untransduced activated CD8+ T cells; test: Cellular uptake assay; type: cell-based, mouse; conditions: 5 μM, pre-incubation 30 min, 2.5 h at 4 or 37 °C, flow cytometry

Compound | baseline bioluminescence distribution [1] | cell viability (MTS) [2] | cell viability (MTS) (A20Luc+ cells) | DLS signal of G-SNAT uncleaved by gzmB [3] | cell viability (MTS) (CAR T cells) | G-SNAT-Cy5 uptake at 4 °C versus 37 °C (MFI-Cy5 of viable cells) [4] | organ distribution of fluorescence after dissection ([1]; 5 nmol retro orbital, 1 h post i.v. injection, organ imaging, n = 3)
O=C([O-])[C@H]1CSC(c2nc3ccc(O)cc3s2)=N1.[K+] [D-luciferin, D-luciferin, potassium salt] | mainly restricted to the abdomen |  |  |  |  |  | 
(4S,10R,13S,16S,19S)-19-((2S,3S)-2-acetamido-3-methylpentanamido)-16-benzyl-13(carboxymethyl)-1-(4-((3-((2-cyanopyrimidin-5-yl)oxy)propyl)carbamoyl)phenyl)-10-((ethylsulfinothioyl)methyl)-3,6,9,12,15,18-hexaoxo-4-(prop-2-yn-1-yl)-2,5,8,11,14,17-hexaazadocosan-22-oic acid [G-SNAT] |  | well tolerated | well tolerated | No DLS signal could be detected | well tolerated |  | 
CC[C@H](C)[C@H](NC(C)=O)C(=O)N[C@@H](CCC(=O)O)C(=O)N[C@@H](Cc1ccccc1)C(=O)N[C@@H](CC(=O)O)C(=O)Nc1ccc(COc2ccc3nc(C4=N[C@@H](C(=O)O)CS4)sc3c2)cc1 [GBLI2] (Ac-IEFD-X1) | highly concentrated in the spleen |  |  |  |  |  | 
CCSSC[C@H](NC(=O)[C@H](CC(=O)O)NC(=O)[C@H](Cc1ccccc1)NC(=O)[C@H](CCC(=O)O)NC(=O)[C@@H](NC(C)=O)[C@@H](C)CC)C(=O)NCC(=O)N[C@@H](Cc1cn(CCCNC(=O)CCCCC[N+]2=C(/C=C/C=C/C=C3/N(C)c4ccc(S(=O)(=O)[O-])cc4C3(C)C)C(C)(C)c3cc(S(=O)(=O)O)ccc32)nn1)C(=O)NCc1ccc(C(=O)NCCCOc2cnc(C#N)nc2)cc1 [G-SNAT-Cy5] |  | well tolerated | well tolerated |  | well tolerated | significantly attenuated | mainly associated with the gastrointestinal tract
